The values that follow come from ChEMBL document CHEMBL6177915, “Design, synthesis and mechanistic insights into triclosan derived dimers as potential anti-plasmodials” (RSC Med Chem, 2025).

In the first series the test system is Plasmodium falciparum. The series is described as follows: Antiplasmodial activity against CQ-resistant Plasmodium falciparum W2 assessed as inhibition of parasite growth incubated for 72 hrs by HRP2 based ELISA. Format: functional, organism-based. The following applies: W2, 72 h. For orientation: ELISA stands for enzyme-linked immunosorbent assay.
As a reminder, the IC50 is the concentration that inhibits the measured activity by half. Regarding `Oc1cc(Cl)c(NCc2cn(CCCCCOc3cc(Cl)ccc3Oc3ccc(Cl)cc3Cl)nn2)cc1Oc1ccc(Cl)cc1Cl`, the IC50 stood at 20 µM.
For `Clc1ccc(Oc2ccc(Cl)cc2OCCCCn2cc(COc3cc(Cl)ccc3Oc3ccc(Cl)cc3Cl)nn2)c(Cl)c1`, the IC50 was found to be 22.2 µM.
`C=C[C@H]1CN2CC[C@H]1C[C@H]2[C@H](O)c1ccnc2ccc(OC)cc12` [QUININE]: the IC50 amounted to 0.45 µM.
Consider `Clc1ccc(Oc2ccc(Cl)cc2OCCCCCCn2cc(COc3cc(Cl)ccc3Oc3ccc(Cl)cc3Cl)nn2)c(Cl)c1`, for which the IC50 is 32.6 µM.
For `Clc1ccc(Oc2ccc(Cl)cc2OCCCCOc2cc(Cl)ccc2Oc2ccc(Cl)cc2Cl)c(Cl)c1`, the IC50 was 22.3 µM.
As to `Clc1ccc(Oc2ccc(Cl)cc2OCCOc2cc(Cl)ccc2Oc2ccc(Cl)cc2Cl)c(Cl)c1`, the IC50 came to 9.27 µM.
With `O=[N+]([O-])c1cc(Oc2ccc(Cl)cc2Cl)c(OCc2cn(CCCOc3cc(Cl)ccc3Oc3ccc(Cl)cc3Cl)nn2)cc1Cl`, the IC50 is 25.8 µM.
`Clc1ccc(Oc2ccc(Cl)cc2OCCn2cc(COc3cc(Cl)ccc3Oc3ccc(Cl)cc3Cl)nn2)c(Cl)c1`: the IC50 came to 21.3 µM.
On the same count and under the same terms, next, `Clc1ccc(Oc2ccc(Cl)cc2OCCCCCOc2cc(Cl)ccc2Oc2ccc(Cl)cc2Cl)c(Cl)c1`: 34.4 µM; `Oc1cc(Cl)c(NCc2cn(CCOc3cc(Cl)ccc3Oc3ccc(Cl)cc3Cl)nn2)cc1Oc1ccc(Cl)cc1Cl`: 22.3 µM; `Oc1cc(Cl)c(NCc2cn(CCCOc3cc(Cl)ccc3Oc3ccc(Cl)cc3Cl)nn2)cc1Oc1ccc(Cl)cc1Cl`: 10.9 µM.
Turning to `Clc1ccc(Oc2ccc(Cl)cc2OCCCn2cc(COc3cc(Cl)ccc3Oc3ccc(Cl)cc3Cl)nn2)c(Cl)c1`, the half-maximal inhibitory concentration (IC50) was found to be 24.7 µM.
Same read-out and setting: with `Clc1ccc(Oc2ccc(Cl)cc2OCCCOc2cc(Cl)ccc2Oc2ccc(Cl)cc2Cl)c(Cl)c1` the figure was 30.9 µM.

The next series concerns Plasmodium falciparum. In words: Antiplasmodial activity against CQ-susceptible Plasmodium falciparum 3D7 assessed as inhibition of parasite growth incubated for 72 hrs by HRP2 based ELISA. Format: functional, organism-based. The following applies: 3D7, 72 h.
On to `Oc1cc(Cl)c(NCc2cn(CCCCCOc3cc(Cl)ccc3Oc3ccc(Cl)cc3Cl)nn2)cc1Oc1ccc(Cl)cc1Cl`, for which the concentration for half-maximal inhibition (IC50) amounted to 27.5 µM.
As for `Clc1ccc(Oc2ccc(Cl)cc2OCCCCn2cc(COc3cc(Cl)ccc3Oc3ccc(Cl)cc3Cl)nn2)c(Cl)c1`, the IC50 stood at 20.7 µM.
Consider `C=C[C@H]1CN2CC[C@H]1C[C@H]2[C@H](O)c1ccnc2ccc(OC)cc12` [QUININE], for which the 50% inhibitory concentration (IC50) is 0.12 µM.
As for `Clc1ccc(Oc2ccc(Cl)cc2OCCCCCCn2cc(COc3cc(Cl)ccc3Oc3ccc(Cl)cc3Cl)nn2)c(Cl)c1`, the IC50 stood at 31.2 µM.
As for `Clc1ccc(Oc2ccc(Cl)cc2OCCCCOc2cc(Cl)ccc2Oc2ccc(Cl)cc2Cl)c(Cl)c1`, the IC50 was determined as 23.9 µM.
In the case of `Clc1ccc(Oc2ccc(Cl)cc2OCCOc2cc(Cl)ccc2Oc2ccc(Cl)cc2Cl)c(Cl)c1`, the IC50 worked out at 12.1 µM.
With `O=[N+]([O-])c1cc(Oc2ccc(Cl)cc2Cl)c(OCc2cn(CCCOc3cc(Cl)ccc3Oc3ccc(Cl)cc3Cl)nn2)cc1Cl`, the IC50 is 22.5 µM.
As for `Clc1ccc(Oc2ccc(Cl)cc2OCCn2cc(COc3cc(Cl)ccc3Oc3ccc(Cl)cc3Cl)nn2)c(Cl)c1`, the IC50 came out at 21.9 µM.
Still for that read-out and setting: with `Clc1ccc(Oc2ccc(Cl)cc2OCCCCCOc2cc(Cl)ccc2Oc2ccc(Cl)cc2Cl)c(Cl)c1` the figure was 26.1 µM; with `Oc1cc(Cl)c(NCc2cn(CCOc3cc(Cl)ccc3Oc3ccc(Cl)cc3Cl)nn2)cc1Oc1ccc(Cl)cc1Cl`, 17.2 µM.
On the same count and under the same terms, with `Oc1cc(Cl)c(NCc2cn(CCCOc3cc(Cl)ccc3Oc3ccc(Cl)cc3Cl)nn2)cc1Oc1ccc(Cl)cc1Cl` the figure was 20.8 µM; with `Clc1ccc(Oc2ccc(Cl)cc2OCCCn2cc(COc3cc(Cl)ccc3Oc3ccc(Cl)cc3Cl)nn2)c(Cl)c1`, 21 µM.
On the same count and under the same terms, with `Clc1ccc(Oc2ccc(Cl)cc2OCCCOc2cc(Cl)ccc2Oc2ccc(Cl)cc2Cl)c(Cl)c1` the figure was 27.7 µM.

The test system of another series is Plasmodium falciparum. The series is described as follows: Resistance index, ratio of IC50 for antiplasmodial activity against CQ-resistant Plasmodium falciparum W2 to IC50 for antiplasmodial activity against CQ-susceptible Plasmodium falciparum 3D7. Format: functional.
Conditions: not given
`Oc1cc(Cl)c(NCc2cn(CCCCCOc3cc(Cl)ccc3Oc3ccc(Cl)cc3Cl)nn2)cc1Oc1ccc(Cl)cc1Cl`: the Ratio IC50 was determined as 0.72.
As to `Clc1ccc(Oc2ccc(Cl)cc2OCCCCn2cc(COc3cc(Cl)ccc3Oc3ccc(Cl)cc3Cl)nn2)c(Cl)c1`, the Ratio IC50 came out at 1.06.
As to `C=C[C@H]1CN2CC[C@H]1C[C@H]2[C@H](O)c1ccnc2ccc(OC)cc12` [QUININE], the Ratio IC50 is 3.75.
For `Clc1ccc(Oc2ccc(Cl)cc2OCCCCCCn2cc(COc3cc(Cl)ccc3Oc3ccc(Cl)cc3Cl)nn2)c(Cl)c1`, the Ratio IC50 is 1.04.
Consider `Clc1ccc(Oc2ccc(Cl)cc2OCCCCOc2cc(Cl)ccc2Oc2ccc(Cl)cc2Cl)c(Cl)c1`, for which the Ratio IC50 amounted to 0.93.
On to `Clc1ccc(Oc2ccc(Cl)cc2OCCOc2cc(Cl)ccc2Oc2ccc(Cl)cc2Cl)c(Cl)c1`, for which the Ratio IC50 amounted to 0.77.
Turning to `O=[N+]([O-])c1cc(Oc2ccc(Cl)cc2Cl)c(OCc2cn(CCCOc3cc(Cl)ccc3Oc3ccc(Cl)cc3Cl)nn2)cc1Cl`, the Ratio IC50 amounted to 1.14.
Still for that read-out and setting: next, `Clc1ccc(Oc2ccc(Cl)cc2OCCn2cc(COc3cc(Cl)ccc3Oc3ccc(Cl)cc3Cl)nn2)c(Cl)c1`: 0.97; `Clc1ccc(Oc2ccc(Cl)cc2OCCCCCOc2cc(Cl)ccc2Oc2ccc(Cl)cc2Cl)c(Cl)c1`: 1.31.
On to `Oc1cc(Cl)c(NCc2cn(CCOc3cc(Cl)ccc3Oc3ccc(Cl)cc3Cl)nn2)cc1Oc1ccc(Cl)cc1Cl`, for which the Ratio IC50 is 1.29.
Still for that read-out and setting: next, `Oc1cc(Cl)c(NCc2cn(CCCOc3cc(Cl)ccc3Oc3ccc(Cl)cc3Cl)nn2)cc1Oc1ccc(Cl)cc1Cl`: 0.52; `Clc1ccc(Oc2ccc(Cl)cc2OCCCn2cc(COc3cc(Cl)ccc3Oc3ccc(Cl)cc3Cl)nn2)c(Cl)c1`: 1.17.
For `Clc1ccc(Oc2ccc(Cl)cc2OCCCOc2cc(Cl)ccc2Oc2ccc(Cl)cc2Cl)c(Cl)c1`, the Ratio IC50 turned out to be 1.11.

Test system in a further series: not listed separately
In words: Cytotoxicity against African green monkey Vero E6 cells assessed as cell viability measured after 48 hrs incubation by MTT assay. Format: toxicity, cell-based, Vero C1008. To be noted: chlorocebus sabaeus. (In general: Tetrazolium dyes change colour on reduction, which living cells bring about.)
By CC50 is commonly meant the concentration that lowers cell viability or growth by half. For `Oc1cc(Cl)c(NCc2cn(CCCCCOc3cc(Cl)ccc3Oc3ccc(Cl)cc3Cl)nn2)cc1Oc1ccc(Cl)cc1Cl`, the CC50 at 48 h worked out at 75 µM.
`Clc1ccc(Oc2ccc(Cl)cc2OCCCCn2cc(COc3cc(Cl)ccc3Oc3ccc(Cl)cc3Cl)nn2)c(Cl)c1`: the CC50 at 48 h was 76.5 µM.
The same measure, in the same setting: next, `Clc1ccc(Oc2ccc(Cl)cc2OCCCCCCn2cc(COc3cc(Cl)ccc3Oc3ccc(Cl)cc3Cl)nn2)c(Cl)c1`: 104 µM.
On to `Clc1ccc(Oc2ccc(Cl)cc2OCCCCOc2cc(Cl)ccc2Oc2ccc(Cl)cc2Cl)c(Cl)c1`, for which the CC50 at 48 h was 99.7 µM.
In the case of `Clc1ccc(Oc2ccc(Cl)cc2OCCOc2cc(Cl)ccc2Oc2ccc(Cl)cc2Cl)c(Cl)c1`, the CC50 at 48 h came to 90.9 µM.
On the same count and under the same terms, with `O=[N+]([O-])c1cc(Oc2ccc(Cl)cc2Cl)c(OCc2cn(CCCOc3cc(Cl)ccc3Oc3ccc(Cl)cc3Cl)nn2)cc1Cl` the figure was 81.9 µM.
Take `Clc1ccc(Oc2ccc(Cl)cc2OCCn2cc(COc3cc(Cl)ccc3Oc3ccc(Cl)cc3Cl)nn2)c(Cl)c1`: the CC50 at 48 h was found to be 105 µM.
Take `Clc1ccc(Oc2ccc(Cl)cc2OCCCCCOc2cc(Cl)ccc2Oc2ccc(Cl)cc2Cl)c(Cl)c1`: the cytotoxic concentration (CC50) at 48 h turned out to be 70.2 µM.
In the case of `Oc1cc(Cl)c(NCc2cn(CCOc3cc(Cl)ccc3Oc3ccc(Cl)cc3Cl)nn2)cc1Oc1ccc(Cl)cc1Cl`, the CC50 at 48 h was 99.3 µM.
As to `Oc1cc(Cl)c(NCc2cn(CCCOc3cc(Cl)ccc3Oc3ccc(Cl)cc3Cl)nn2)cc1Oc1ccc(Cl)cc1Cl`, the CC50 at 48 h amounted to 76.8 µM.
In the case of `Clc1ccc(Oc2ccc(Cl)cc2OCCCn2cc(COc3cc(Cl)ccc3Oc3ccc(Cl)cc3Cl)nn2)c(Cl)c1`, the CC50 at 48 h turned out to be 103 µM.
Same read-out and setting: with `Clc1ccc(Oc2ccc(Cl)cc2OCCCOc2cc(Cl)ccc2Oc2ccc(Cl)cc2Cl)c(Cl)c1` the figure was 81.5 µM.

Test system in the next series: not listed separately
The series is described as follows: Selectivity index, ratio of CC50 for Cytotoxicity against African green monkey Vero E6 cells to IC50 for Antiplasmodial activity against CQ-resistant Plasmodium falciparum W2. The following applies: read-out: Ratio CC50/IC50. The class given is toxicity, cell-based.
For the molecule `Oc1cc(Cl)c(NCc2cn(CCCCCOc3cc(Cl)ccc3Oc3ccc(Cl)cc3Cl)nn2)cc1Oc1ccc(Cl)cc1Cl`, the selectivity ratio was 3.8.
For the molecule `Clc1ccc(Oc2ccc(Cl)cc2OCCCCn2cc(COc3cc(Cl)ccc3Oc3ccc(Cl)cc3Cl)nn2)c(Cl)c1`, the selectivity ratio amounted to 3.5.
The same measure, in the same setting: next, `Clc1ccc(Oc2ccc(Cl)cc2OCCCCCCn2cc(COc3cc(Cl)ccc3Oc3ccc(Cl)cc3Cl)nn2)c(Cl)c1`: 3.2; `Clc1ccc(Oc2ccc(Cl)cc2OCCCCOc2cc(Cl)ccc2Oc2ccc(Cl)cc2Cl)c(Cl)c1`: 4.5; `Clc1ccc(Oc2ccc(Cl)cc2OCCOc2cc(Cl)ccc2Oc2ccc(Cl)cc2Cl)c(Cl)c1`: 9.8.
As to `O=[N+]([O-])c1cc(Oc2ccc(Cl)cc2Cl)c(OCc2cn(CCCOc3cc(Cl)ccc3Oc3ccc(Cl)cc3Cl)nn2)cc1Cl`, the selectivity ratio amounted to 3.2.
With `Clc1ccc(Oc2ccc(Cl)cc2OCCn2cc(COc3cc(Cl)ccc3Oc3ccc(Cl)cc3Cl)nn2)c(Cl)c1`, the selectivity ratio was found to be 4.9.
With `Clc1ccc(Oc2ccc(Cl)cc2OCCCCCOc2cc(Cl)ccc2Oc2ccc(Cl)cc2Cl)c(Cl)c1`, the selectivity ratio was 2.
The same measure, in the same setting: next, `Oc1cc(Cl)c(NCc2cn(CCOc3cc(Cl)ccc3Oc3ccc(Cl)cc3Cl)nn2)cc1Oc1ccc(Cl)cc1Cl`: 4.5.
As to `Oc1cc(Cl)c(NCc2cn(CCCOc3cc(Cl)ccc3Oc3ccc(Cl)cc3Cl)nn2)cc1Oc1ccc(Cl)cc1Cl`, the selectivity ratio is 7.
Regarding `Clc1ccc(Oc2ccc(Cl)cc2OCCCn2cc(COc3cc(Cl)ccc3Oc3ccc(Cl)cc3Cl)nn2)c(Cl)c1`, the selectivity ratio was found to be 4.2.
As to `Clc1ccc(Oc2ccc(Cl)cc2OCCCOc2cc(Cl)ccc2Oc2ccc(Cl)cc2Cl)c(Cl)c1`, the selectivity ratio amounted to 2.6.

The next series concerns Heme. The series is described as follows: Binding affinity to heme assessed as binding constant logK of the compound in HEPES buffer at pH 7.4.
Conditions: not given
For the molecule `Clc1ccc(Oc2ccc(Cl)cc2OCCOc2cc(Cl)ccc2Oc2ccc(Cl)cc2Cl)c(Cl)c1`, the log K came to 6.4.
As to `Oc1cc(Cl)c(NCc2cn(CCCOc3cc(Cl)ccc3Oc3ccc(Cl)cc3Cl)nn2)cc1Oc1ccc(Cl)cc1Cl`, the log K came out at 5.17.

In another series the test system is Heme. In words: Binding affinity to heme assessed as binding constant logK of the compound in MES buffer at pH 5.6.
Conditions: not given
In the case of `Clc1ccc(Oc2ccc(Cl)cc2OCCOc2cc(Cl)ccc2Oc2ccc(Cl)cc2Cl)c(Cl)c1`, the log K was determined as 6.58.
In the case of `Oc1cc(Cl)c(NCc2cn(CCCOc3cc(Cl)ccc3Oc3ccc(Cl)cc3Cl)nn2)cc1Oc1ccc(Cl)cc1Cl`, the log K amounted to 6.3.
